Results on four compounds are retold here after ChEMBL document CHEMBL5465560, “Selectivity Literature for EUbOPEN Chemogenomic Library” (2024).

Test [1] addresses T1, Peripheral plasma membrane protein CASK (Homo sapiens) (UniProt O14936).
T1 sequence (whole entry): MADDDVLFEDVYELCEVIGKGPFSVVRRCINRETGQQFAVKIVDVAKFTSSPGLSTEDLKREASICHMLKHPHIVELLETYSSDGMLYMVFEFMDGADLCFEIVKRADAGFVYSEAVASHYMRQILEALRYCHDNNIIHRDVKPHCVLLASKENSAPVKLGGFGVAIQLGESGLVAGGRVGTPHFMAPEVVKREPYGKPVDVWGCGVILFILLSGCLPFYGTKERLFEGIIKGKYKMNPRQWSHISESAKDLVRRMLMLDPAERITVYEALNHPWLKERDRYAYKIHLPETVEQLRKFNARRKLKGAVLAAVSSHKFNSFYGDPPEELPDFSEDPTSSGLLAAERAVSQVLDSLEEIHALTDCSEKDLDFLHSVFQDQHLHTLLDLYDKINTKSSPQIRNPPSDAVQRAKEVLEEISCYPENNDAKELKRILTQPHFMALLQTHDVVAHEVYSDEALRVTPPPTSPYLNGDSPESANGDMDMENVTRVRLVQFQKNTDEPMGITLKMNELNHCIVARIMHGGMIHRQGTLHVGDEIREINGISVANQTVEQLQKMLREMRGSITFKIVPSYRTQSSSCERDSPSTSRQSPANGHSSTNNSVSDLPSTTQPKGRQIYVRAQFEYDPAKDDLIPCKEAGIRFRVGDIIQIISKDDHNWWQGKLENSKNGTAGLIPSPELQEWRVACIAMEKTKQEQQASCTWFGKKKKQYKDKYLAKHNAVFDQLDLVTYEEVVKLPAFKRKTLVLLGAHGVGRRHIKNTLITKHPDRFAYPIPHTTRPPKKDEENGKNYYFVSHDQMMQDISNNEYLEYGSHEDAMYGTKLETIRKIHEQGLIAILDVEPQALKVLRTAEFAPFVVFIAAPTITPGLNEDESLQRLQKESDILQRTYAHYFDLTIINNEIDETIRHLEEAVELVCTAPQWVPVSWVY
Description: Selectivity interaction (Kinase panel (DSF assay)) EUB0001559a CASK. Background: Differential scanning fluorimetry follows unfolding on heating by fluorescence.

Test [2] concerns the target Casein kinase I isoform delta (Homo sapiens, UniProt P48730). The experiment in a line: Selectivity interaction (Kinase panel (literature)) EUB0001199aCl CSNK1D. As to conditions: at 1 µM.
Test [3] addresses Tyrosine-protein kinase Fes/Fps (Homo sapiens) (UniProt P07332). Description: Selectivity interaction (Upstate Kinase Profiler service (Millipore)) EUB0000056c FES. As to conditions: at 1 µM.
Test [4] deals with T2, Ephrin type-A receptor 1 (Homo sapiens) (UniProt P21709).
T2 sequence (whole entry): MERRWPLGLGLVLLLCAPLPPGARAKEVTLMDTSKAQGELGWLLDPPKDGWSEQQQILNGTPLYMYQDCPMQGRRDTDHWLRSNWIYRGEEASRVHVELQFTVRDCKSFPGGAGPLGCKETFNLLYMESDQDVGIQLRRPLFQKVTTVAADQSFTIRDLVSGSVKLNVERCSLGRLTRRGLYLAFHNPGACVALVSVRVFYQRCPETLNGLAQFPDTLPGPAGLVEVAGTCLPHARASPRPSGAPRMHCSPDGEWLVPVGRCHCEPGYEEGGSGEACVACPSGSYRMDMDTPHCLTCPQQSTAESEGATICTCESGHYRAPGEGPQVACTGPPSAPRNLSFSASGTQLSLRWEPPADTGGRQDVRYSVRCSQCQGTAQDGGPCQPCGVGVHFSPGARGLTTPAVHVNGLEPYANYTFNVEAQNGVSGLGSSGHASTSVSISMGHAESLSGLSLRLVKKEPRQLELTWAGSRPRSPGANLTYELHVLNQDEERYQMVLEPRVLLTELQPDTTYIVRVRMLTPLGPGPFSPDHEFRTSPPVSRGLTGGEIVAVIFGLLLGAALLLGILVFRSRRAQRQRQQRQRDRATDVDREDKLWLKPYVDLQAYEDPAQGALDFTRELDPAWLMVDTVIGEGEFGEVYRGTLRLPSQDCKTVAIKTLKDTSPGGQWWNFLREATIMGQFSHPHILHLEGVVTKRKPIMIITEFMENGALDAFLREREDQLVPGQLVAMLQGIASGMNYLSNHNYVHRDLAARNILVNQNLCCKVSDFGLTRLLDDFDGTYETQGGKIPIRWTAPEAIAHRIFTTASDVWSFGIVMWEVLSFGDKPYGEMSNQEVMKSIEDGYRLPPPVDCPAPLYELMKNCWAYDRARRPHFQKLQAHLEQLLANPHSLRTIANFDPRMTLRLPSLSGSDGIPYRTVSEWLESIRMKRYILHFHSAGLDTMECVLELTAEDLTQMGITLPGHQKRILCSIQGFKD
Description: Selectivity interaction (KinomeScan (DiscoverX)) EUB0000655a EPHA1. The following applies: at 10 µM.

Sequence of Tyrosine-protein kinase Fes/Fps (Homo sapiens) (P07332 whole entry): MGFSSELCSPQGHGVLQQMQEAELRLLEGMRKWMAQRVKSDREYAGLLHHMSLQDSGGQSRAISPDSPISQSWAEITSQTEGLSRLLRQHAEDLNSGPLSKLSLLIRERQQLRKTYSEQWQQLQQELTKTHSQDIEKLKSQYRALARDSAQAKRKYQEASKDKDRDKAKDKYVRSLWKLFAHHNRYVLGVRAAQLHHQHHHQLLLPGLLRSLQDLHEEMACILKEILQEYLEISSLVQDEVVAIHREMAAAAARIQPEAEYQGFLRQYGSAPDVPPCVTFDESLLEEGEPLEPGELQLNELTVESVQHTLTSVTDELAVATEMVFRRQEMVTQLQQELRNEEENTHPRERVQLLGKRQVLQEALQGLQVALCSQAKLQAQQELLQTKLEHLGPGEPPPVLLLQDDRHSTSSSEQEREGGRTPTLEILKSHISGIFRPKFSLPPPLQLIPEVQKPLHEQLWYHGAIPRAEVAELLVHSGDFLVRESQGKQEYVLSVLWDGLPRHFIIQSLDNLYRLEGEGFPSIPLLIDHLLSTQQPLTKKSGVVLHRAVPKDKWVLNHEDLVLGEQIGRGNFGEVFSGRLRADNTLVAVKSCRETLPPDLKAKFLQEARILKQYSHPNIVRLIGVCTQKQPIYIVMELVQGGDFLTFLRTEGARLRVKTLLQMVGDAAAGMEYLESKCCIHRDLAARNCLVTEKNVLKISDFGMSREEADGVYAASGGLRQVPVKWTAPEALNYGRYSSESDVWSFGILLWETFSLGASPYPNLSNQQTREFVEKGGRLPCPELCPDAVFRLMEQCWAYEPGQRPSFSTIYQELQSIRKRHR
Sequence of Casein kinase I isoform delta (P48730 whole entry, looked up, canonical isoform): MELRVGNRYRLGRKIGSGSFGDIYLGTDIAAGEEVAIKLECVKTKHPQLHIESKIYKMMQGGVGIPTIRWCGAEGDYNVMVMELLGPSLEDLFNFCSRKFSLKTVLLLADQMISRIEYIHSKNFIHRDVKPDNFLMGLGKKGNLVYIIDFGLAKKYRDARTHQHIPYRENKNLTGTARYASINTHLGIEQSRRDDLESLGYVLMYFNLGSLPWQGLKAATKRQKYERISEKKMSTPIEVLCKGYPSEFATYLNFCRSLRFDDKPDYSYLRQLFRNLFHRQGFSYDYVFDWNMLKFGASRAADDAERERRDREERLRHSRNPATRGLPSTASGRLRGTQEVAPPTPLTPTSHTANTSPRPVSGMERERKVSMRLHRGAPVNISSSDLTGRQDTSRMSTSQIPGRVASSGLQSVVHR

In test [1], `CN(C(=O)c1cnn2cccnc12)c1cc2c(cc1N1CCOCC1)C(=O)N(C[C@@H](F)C(C)(C)O)C2` showed a dTM of 0 K.

Take `CN1Cc2nccc(-c3cn(C)nc3-c3ccc(F)cc3)c2C1=O`: the % of inhibition in test [2] is 94%.

Regarding `Cc1ccc(-c2ccc3c(ccc4sc5c(c43)NC[C@@H](C)NC5=O)n2)cn1`, in test [3], the % of inhibition was -3%.

`CN(C)CCOc1ccc(-c2nc(-c3ccncc3)c(-c3ccc4c(c3)CC/C4=N\O)[nH]2)cc1`: the % of control in test [4] is 91%.
